# Like-named read-outs stand apart in the source and are kept apart here.
# Assays:
# [1] = system: Sprague-Dawley (S.D.) rats; assay type: in vivo, rat; details: for Gastric Lesions % Inhibition / Gastric Lesions Mean Score + SEM: 60 minutes after ethanol
# Description: Twenty-four hr. fasted Sprague-Dawley (S.D.) rats were perorally (p.o.) dosed with 1.0 ml absolute ethanol. […] One hour later, the animals were sacrificed and stomach mucosae were examined for resulting lesions.
# [2] = system: S.D. rat; assay type: in vivo; details: for dose at which significant ulcer reduction was observed: administered simultaneously with indomethacin; for Gastric Ulcers % Inhibition / Gastric Ulcers Mean Score + SEM (number of ulcers): 4 hours after indomethacin
# Description: Indomethacin, 20 mg/kg p.o., was used to induce ulcers in the 24 hr. fasted S.D. rat. […]
# The number of ulcers for twenty-six (i.p.) and fifteen (p.o.) aqueous vehicle-dosed control animals in the indomethacin ulcer assay were so close, (23.0±2.2 S.E.M. i.p.; 18.1±1.6 S.E.M. p.o.), that the data from each experimental dosage group were pooled for group statistical analysis by way of Student's "t" test. FIG. 1 indicates the number of ulcers resulting from indomethacin at 20 mg/kg p.o., when either 0.5% (wt.) aqueous methylcellulose vehicle or L-363,586 was co-administered. The bold-faced numbers at the bottom of each column represent the number of rats used for each value, while the dose, in mg/kg, is noted at the top of each column. […] Higher i.p. doses, from 0.0016 to 0.1 mg/kg, thereafter, inhibited ulcer formation by 80% to 94%.
# [3] = 0.22 mg/kg p.o. coadministered with 1.0 ml 100% ethanol
# [4] = 0.44 mg/kg p.o. coadministered with 1.0 ml 100% ethanol
# [5] = 1.0 mg/kg p.o. coadministered with 1.0 ml 100% ethanol
# [6] = 2.2 mg/kg p.o. coadministered with 1.0 ml 100% ethanol
# [7] = 4.4 mg/kg p.o. coadministered with 1.0 ml 100% ethanol
# [8] = 0.01 mg/kg p.o. simultaneously with indomethacin 20 mg/kg p.o.
# [9] = 0.1 mg/kg p.o. simultaneously with indomethacin 20 mg/kg p.o.
# [10] = 1.0 mg/kg p.o. simultaneously with indomethacin 20 mg/kg p.o.
# [11] = 0.0001 mg/kg i.p. immediately following 20 mg/kg p.o. indomethacin
# [12] = 0.001 mg/kg i.p. immediately following 20 mg/kg p.o. indomethacin
# [13] = 0.01 mg/kg i.p. immediately following 20 mg/kg p.o. indomethacin
# [14] = 0.1 mg/kg i.p. immediately following 20 mg/kg p.o. indomethacin
compound,measurement,setting,value
"CC(C)[C@@H]1NC(=O)[C@H](CCCCN)NC(=O)[C@@H](Cc2c[nH]c3ccccc23)NC(=O)[C@H](Cc2ccc(O)cc2)NC(=O)[C@H](C)N(C)C(=O)[C@H](Cc2ccccc2)NC1=O [L-363,586, cyclo-(N-methyl-Ala-Tyr-d-Trp-Lys-Val-Phe)]",Gastric Lesions % Inhibition,[1]; [3],8.0%
same,Gastric Lesions Mean Score + SEM,[1]; [3],2.3 ± 0.3
same,Gastric Lesions % Inhibition,[1]; [4],28.0%
same,Gastric Lesions Mean Score + SEM,[1]; [4],1.8 ± 0.4
same,Gastric Lesions % Inhibition,[1]; [5],28.0%
same,Gastric Lesions Mean Score + SEM,[1]; [5],1.8 ± 0.3
same,Gastric Lesions % Inhibition,[1]; [6],40.0%
same,Gastric Lesions Mean Score + SEM,[1]; [6],1.5 ± 0.4
same,Gastric Lesions % Inhibition,[1]; [7],60.0%
same,Gastric Lesions Mean Score + SEM,[1]; [7],1.0 ± 0.3
same,prophylactic effect on ethanol-induced lesions,"[1]; 0.037 to 3.0 mg/kg p.o. fifteen min. prior to 1.0 ml absolute ethanol, examined one hour later",No prophylactic effect
same,dose significantly effective in protecting against ethanol-induced lesions,"[1]; p.o. simultaneously with 100% ethanol, lowest such dose",0.44 mg/kg
same,reduction of the number of ulcers,[2]; 0.00001 mg/kg (10 nanograms/kg) i.p. immediately following indomethacin 20 mg/kg p.o.,58.3%
same,% Inhibition of Gastric Ulcers,[2]; [8],-2.8%
same,Number of Gastric Ulcers M + S.E.M.,[2]; [8],18.6 ± 4.4
same,% Inhibition of Gastric Ulcers,[2]; [9],50.3%
same,Number of Gastric Ulcers M + S.E.M.,[2]; [9],9.0 ± 1.9
same,% Inhibition of Gastric Ulcers,[2]; [10],83.4%
same,Number of Gastric Ulcers M + S.E.M.,[2]; [10],3.0 ± 1.3
same,reduction in gastric mucosal ulcers,[2]; administered either p.o. or i.p.,dose-dependent reduction
same,dose at which significant ulcer reduction was observed,[2]; i.p.,10 nanograms per kilogram
same,further reduction of damage with increasing dose,"[2]; increasing log-dose amounts from 0.00001 to 0.001 mg/kg i.p., indomethacin 20 mg/kg p.o.",did not effectively reduce the damage any further
same,dose at which significant ulcer reduction was observed,[2]; p.o.,0.1 mg/kg
"C[C@H](N)C(=O)NCC(=O)N[C@H]1CSSC[C@@H](C(=O)O)NC(=O)[C@H](CO)NC(=O)[C@H]([C@@H](C)O)NC(=O)[C@H](Cc2ccccc2)NC(=O)[C@H]([C@@H](C)O)NC(=O)[C@H](CCCCN)NC(=O)[C@H](Cc2c[nH]c3ccccc23)NC(=O)[C@H](Cc2ccccc2)NC(=O)[C@H](Cc2ccccc2)NC(=O)[C@H](CC(N)=O)NC(=O)[C@H](CCCCN)NC1=O [somatostatin, reference compound]",Gastric Ulcers % Inhibition,[2]; [11],-9.3%
same,Gastric Ulcers Mean Score + SEM (number of ulcers),[2]; [11],22.4 ± 3.8
same,Gastric Ulcers % Inhibition,[2]; [12],2.4%
same,Gastric Ulcers Mean Score + SEM (number of ulcers),[2]; [12],21.0 ± 2.4
same,Gastric Ulcers % Inhibition,[2]; [13],16.1%
same,Gastric Ulcers Mean Score + SEM (number of ulcers),[2]; [13],17.2 ± 2.3
same,Gastric Ulcers % Inhibition,[2]; [14],5.9%
same,Gastric Ulcers Mean Score + SEM (number of ulcers),[2]; [14],19.3 ± 3.3
same,Gastric Ulcers Mean Score + SEM (number of ulcers),[2]; 0.5 mg/kg i.p. immediately following 20 mg/kg p.o. indomethacin,7.7 ± 3.6
same,Gastric Ulcers Mean Score + SEM (number of ulcers),[2]; 1.0 mg/kg i.p. immediately following 20 mg/kg p.o. indomethacin,11.0 ± 3.0
same,effectiveness in the peroral (p.o.) indomethacin-induced ulcer assay,[2]; doses up to 0.1 mg/kg i.p.,not effective

# Source: patent US4470974A, “Gastric cytoprotection with L-363,586” (Merck & Co., Inc., priority 1983, dated 1984)
